Results as given in patent US5939399A, “Polyene antibiotics, 3874 H1 to H6, processes for their preparation and use” (Hoechst Aktiengesellschaft, priority 1996, dated 1999).
Values after ≈ are worked out from the molar mass of the structure shown.

Experiments:
Chemical stability = assay type: physicochemical; conditions: for Stability (unstable in / on exposure to): acidic and strongly alkaline solution, light, heat and oxygen; for Stability (stable in): neutral and weakly alkaline medium
[1] = Solubility in organic solvents; assay type: physicochemical
test microbes = experiment: Agar diffusion test, zones of inhibition; assay type: cell-based; conditions: for zone of inhibition at 25 µg/mL: concentration 0.025 mg/mL; for zone of inhibition at 25 µg/mL / zone of inhibition at 50 µg/mL / zone of inhibition at 100 µg/mL / zone of inhibition at 200 µg/mL / Zone of inhibition (diameter): agar layer; for zone of inhibition at 25 µg/mL / zone of inhibition at 50 µg/mL / zone of inhibition at 100 µg/mL / zone of inhibition at 200 µg/mL / zone of inhibition at 6.3 µg/mL / zone of inhibition at 12.5 µg/mL: read-out: Zone of inhibition (diameter); for zone of inhibition at 50 µg/mL: concentration 0.05 mg/mL; for zone of inhibition at 100 µg/mL: concentration 0.1 mg/mL; for zone of inhibition at 200 µg/mL: concentration 0.2 mg/mL
Source text: The superiority of the antibiotics according to the invention is shown particularly in so-called diffusion tests in which the compounds diffuse in an agar layer containing the test microbes. The diameter of the zones of inhibition is then a measure of the activity of the antibiotics (Table 3).

E. floccosum 190/143 = experiment: In vitro microdilution test in RPMI 1640 medium; assay type: cell-based; conditions: Epidermophyton floccosum, 144 h, dermatophyte E. floccosum 190/143, 6 days at 30° C., read-out: Minimum inhibitory concentration MIC
Description: (§1) In vitro activity on dermatophytes, yeasts and molds
(§2) (microdilution test in RPMI 1640 medium)
(§3) Incubation: 48 h at 35° C. (yeasts) or 6 days at 30° C. (dermatophytes and molds)

A. niger ATCC 16404 = experiment: In vitro microdilution test in RPMI 1640 medium; assay type: cell-based; conditions: Aspergillus niger, ATCC16404, 144 h, mold A. niger ATCC 16404, 6 days at 30° C., read-out: Minimum inhibitory concentration MIC
Description: as §1, §2, §3

A. fumigatus ATCC 9197 = experiment: In vitro microdilution test in RPMI 1640 medium; assay type: cell-based; conditions: Aspergillus fumigatus, ATCC9197, 144 h, mold A. fumigatus ATCC 9197, 6 days at 30° C., read-out: Minimum inhibitory concentration MIC
Description: as §1, §2, §3

C. krusei 203/230 = experiment: In vitro microdilution test in RPMI 1640 medium; assay type: cell-based; conditions: Pichia kudriavzevii, yeast C. krusei 203/230, 48 h at 35° C., read-out: Minimum inhibitory concentration MIC
Description: as §1, §2, §3

[2] = test system: C. pseudotropicalis 202/218; experiment: In vitro microdilution test in RPMI 1640 medium; assay type: cell-based; conditions: Kluyveromyces marxianus, yeast C. pseudotropicalis 202/218, 48 h at 35° C., read-out: Minimum inhibitory concentration MIC
Description: as §1, §2, §3

C. krusei Berlin 1 = experiment: In vitro microdilution test in RPMI 1640 medium; assay type: cell-based; conditions: Pichia kudriavzevii, BERLIN1, yeast C. krusei Berlin 1, 48 h at 35° C., read-out: Minimum inhibitory concentration MIC
Description: as §1, §2, §3

C. albicans ATCC 90029 = experiment: In vitro microdilution test in RPMI 1640 medium; assay type: cell-based; conditions: Candida albicans, ATCC90029, yeast C. albicans ATCC 90029, 48 h at 35° C., read-out: Minimum inhibitory concentration MIC
Description: as §1, §2, §3

C. tropicalis 201/202 = experiment: In vitro microdilution test in RPMI 1640 medium; assay type: cell-based; conditions: Candida tropicalis, yeast C. tropicalis 201/202, 48 h at 35° C., read-out: Minimum inhibitory concentration MIC
Description: as §1, §2, §3

C. glabrata ATCC 90030 = experiment: In vitro microdilution test in RPMI 1640 medium; assay type: cell-based; conditions: Nakaseomyces glabratus, ATCC90030, yeast C. glabrata ATCC 90030, 48 h at 35° C., read-out: Minimum inhibitory concentration MIC
Description: as §1, §2, §3

C. albicans ATCC 90028 = experiment: In vitro microdilution test in RPMI 1640 medium; assay type: cell-based; conditions: Candida albicans, ATCC90028, yeast C. albicans ATCC 90028, 48 h at 35° C., read-out: Minimum inhibitory concentration MIC
Description: as §1, §2, §3

T. rubrum 101/58 = experiment: In vitro microdilution test in RPMI 1640 medium; assay type: cell-based; conditions: Trichophyton rubrum, 144 h, dermatophyte T. rubrum 101/58, 6 days at 30° C., read-out: Minimum inhibitory concentration MIC
Description: as §1, §2, §3

[3] = test system: C. parapsilosis ATCC 90018; experiment: In vitro microdilution test in RPMI 1640 medium; assay type: cell-based; conditions: Lodderomyces parapsilosis, ATCC90018, yeast C. parapsilosis ATCC 90018, 48 h at 35° C., read-out: Minimum inhibitory concentration MIC
Description: as §1, §2, §3

T. mentagrophytes 100/25 = experiment: In vitro microdilution test in RPMI 1640 medium; assay type: cell-based; conditions: Trichophyton mentagrophytes, 144 h, dermatophyte T. mentagrophytes 100/25, 6 days at 30° C., read-out: Minimum inhibitory concentration MIC
Description: as §1, §2, §3

A. flavus ATCC 9643 = experiment: In vitro microdilution test in RPMI 1640 medium; assay type: cell-based; conditions: Aspergillus flavus, ATCC9643, 144 h, mold A. flavus ATCC 9643, 6 days at 30° C., read-out: Minimum inhibitory concentration MIC
Description: as §1, §2, §3

C. glabrata Berlin 12 = experiment: In vitro microdilution test in RPMI 1640 medium; assay type: cell-based; conditions: Nakaseomyces glabratus, BERLIN12, yeast C. glabrata Berlin 12, 48 h at 35° C., read-out: Minimum inhibitory concentration MIC
Description: as §1, §2, §3

C. neoformans ATCC 90112 = experiment: In vitro microdilution test in RPMI 1640 medium; assay type: cell-based; conditions: Cryptococcus neoformans, ATCC90112, yeast C. neoformans ATCC 90112, 48 h at 35° C., read-out: Minimum inhibitory concentration MIC
Description: as §1, §2, §3

C. tropicalis 201/201 = experiment: In vitro microdilution test in RPMI 1640 medium; assay type: cell-based; conditions: Candida tropicalis, yeast C. tropicalis 201/201, 48 h at 35° C., read-out: Minimum inhibitory concentration MIC
Description: as §1, §2, §3

[4] = Binding to ergosterol compared with cholesterol

For `CNc1ccc(C(=O)CC(O)CCC(C)C2OC(=O)CC(O)CC(O)CCCC(O)CC(O)CC(O)CC3(O)CC(O)C(C(=O)O)C(CC(OC4OC(C)C(O)C(N)C4O)/C=C/C=C/C=C/C=C\C=C/C=C/C=C/C2C)O3)cc1` (stereo not drawn) [3874 H2], the “Stability (unstable in / on exposure to)” value (Chemical stability) was “unstable in acidic and strongly alkaline solution and on exposure to light, heat and oxygen”, the “Stability (stable in)” value (Chemical stability) was “Stable in neutral and weakly alkaline medium” and the Solubility [1] was “soluble in methanol, acetonitrile and chloroform”.
For `CC1/C=C/C=C/C=C\C=C/C=C/C=C/C=C/C(OC2OC(C)C(O)C(N)C2O)CC2OC(O)(CC(O)CC(O)CC(O)CCCC(O)CC(O)CC(=O)OC1C(C)CCC(O)CC(=O)c1ccc(N)cc1)CC(O)C2C(=O)O` (stereo not drawn) [3874 H1], the “Stability (unstable in / on exposure to)” value (Chemical stability) was “unstable in acidic and strongly alkaline solution and on exposure to light, heat and oxygen”, the “Stability (stable in)” value (Chemical stability) was “Stable in neutral and weakly alkaline medium” and the zone of inhibition at 25 µg/mL (test microbes) was 21 mm. The zone of inhibition at 50 µg/mL (test microbes) was 24 mm, the zone of inhibition at 100 µg/mL (test microbes) was 25 mm and the zone of inhibition at 200 µg/mL (test microbes) was 26 mm. For the same compound, the zone of inhibition at 6.3 µg/mL (test microbes) was 17 mm, the zone of inhibition at 12.5 µg/mL (test microbes) was 19 mm and the Solubility [1] was “soluble in methanol, acetonitrile and chloroform”. The MIC (E. floccosum 190/143) was 16 µg/mL (≈ 14.6 µM), the MIC (A. niger ATCC 16404) was 2 µg/mL (≈ 1.82 µM) and the MIC (A. fumigatus ATCC 9197) was 4 µg/mL (≈ 3.64 µM). For the same compound, the MIC (C. krusei 203/230) was 4 µg/mL (≈ 3.64 µM), the MIC [2] was 2 µg/mL (≈ 1.82 µM) and the MIC (C. krusei Berlin 1) was 2 µg/mL (≈ 1.82 µM). The MIC (C. albicans ATCC 90029) was 2 µg/mL (≈ 1.82 µM), the MIC (C. tropicalis 201/202) was 2 µg/mL (≈ 1.82 µM) and the MIC (C. glabrata ATCC 90030) was 4 µg/mL (≈ 3.64 µM). It also gave an MIC (C. albicans ATCC 90028) of 2 µg/mL (≈ 1.82 µM), an MIC (T. rubrum 101/58) of 16 µg/mL (≈ 14.6 µM) and an MIC [3] of 4 µg/mL (≈ 3.64 µM). The MIC (T. mentagrophytes 100/25) was 4 µg/mL (≈ 3.64 µM), the MIC (A. flavus ATCC 9643) was 8 µg/mL (≈ 7.28 µM) and the MIC (C. glabrata Berlin 12) was 2 µg/mL (≈ 1.82 µM). It also gave an MIC (C. neoformans ATCC 90112) of 2 µg/mL (≈ 1.82 µM) and an MIC (C. tropicalis 201/201) of 2 µg/mL (≈ 1.82 µM).
In the case of `C/C=C/C=C/C(=O)CC(O)CCC(C)C1OC(=O)CC(O)CC(O)CCCC(O)CC(O)CC(O)CC2(O)CC(O)C(C(=O)O)C(CC(OC3OC(C)C(O)C(N)C3O)/C=C/C=C/C=C/C=C\C=C/C=C/C=C/C1C)O2` (stereo not drawn) [3874 H3], the “Stability (unstable in / on exposure to)” value (Chemical stability) is reported as “unstable in acidic and strongly alkaline solution and on exposure to light, heat and oxygen”, the “Stability (stable in)” value (Chemical stability) is reported as “Stable in neutral and weakly alkaline medium” and the zone of inhibition at 25 µg/mL (test microbes) is reported as 14 mm. The zone of inhibition at 50 µg/mL (test microbes) was 18 mm, the zone of inhibition at 100 µg/mL (test microbes) was 20 mm and the zone of inhibition at 200 µg/mL (test microbes) was 22 mm. The zone of inhibition at 6.3 µg/mL (test microbes) was 12 mm, the zone of inhibition at 12.5 µg/mL (test microbes) was 13 mm and the “Binding to ergosterol versus cholesterol” value [4] was “bind more strongly to ergosterol than to cholesterol”. For the same compound, the Solubility [1] was “soluble in methanol and other lower alcohols, acetonitrile and chloroform”, the MIC (E. floccosum 190/143) was 16 µg/mL (≈ 14.9 µM) and the MIC (A. niger ATCC 16404) was 8 µg/mL (≈ 7.45 µM). For the same compound, the MIC (A. fumigatus ATCC 9197) was 4 µg/mL (≈ 3.72 µM), the MIC (C. krusei 203/230) was 4 µg/mL (≈ 3.72 µM) and the MIC [2] was 4 µg/mL (≈ 3.72 µM). For the same compound, the MIC (C. krusei Berlin 1) was 2 µg/mL (≈ 1.86 µM), the MIC (C. albicans ATCC 90029) was 4 µg/mL (≈ 3.72 µM) and the MIC (C. tropicalis 201/202) was 4 µg/mL (≈ 3.72 µM). The MIC (C. glabrata ATCC 90030) was 4 µg/mL (≈ 3.72 µM), the MIC (C. albicans ATCC 90028) was 4 µg/mL (≈ 3.72 µM) and the MIC (T. rubrum 101/58) was 16 µg/mL (≈ 14.9 µM). It also gave an MIC [3] of 4 µg/mL (≈ 3.72 µM), an MIC (T. mentagrophytes 100/25) of 8 µg/mL (≈ 7.45 µM) and an MIC (A. flavus ATCC 9643) of 16 µg/mL (≈ 14.9 µM). For the same compound, the MIC (C. glabrata Berlin 12) was 4 µg/mL (≈ 3.72 µM), the MIC (C. neoformans ATCC 90112) was 2 µg/mL (≈ 1.86 µM) and the MIC (C. tropicalis 201/201) was 4 µg/mL (≈ 3.72 µM).
In the case of `C[C@@H]1[C@H](O)[C@@H](C)/C=C/C=C/C=C/C=C/C=C/C=C/C=C/[C@H](O[C@@H]2O[C@H](C)[C@@H](O)[C@H](N)[C@@H]2O)C[C@@H]2O[C@](O)(C[C@@H](O)C[C@@H](O)[C@H](O)CC[C@@H](O)C[C@@H](O)CC(=O)O[C@H]1C)C[C@H](O)[C@H]2C(=O)O` [Amphotericin B, amphotericin B, reference compound], the “Zone of inhibition (diameter)” value (test microbes; concentration 0.0063 mg/mL) is reported as “.o slashed”, the “Zone of inhibition (diameter)” value (test microbes; concentration 0.0125 mg/mL) is reported as “.o slashed” and the zone of inhibition at 25 µg/mL (test microbes) is reported as 8 mm. It also gave a zone of inhibition at 50 µg/mL (test microbes) of 10 mm, a zone of inhibition at 100 µg/mL (test microbes) of 12 mm and a zone of inhibition at 200 µg/mL (test microbes) of 14 mm. The Solubility [1] was “only very low solubility in the said solvents and others”.
